This note sets out measurements from PubChem BioAssay AID248 (DTP/NCI, 2004).

Structures are written as SMILES. “And” between values parts separate entries of the source, which are not always exact repeats. Identical values can stand only once. Toxic doses and inconclusive results are not listed.

In the experiment the test system is L1210 leukemia ip in BDF1 mice, survival T/C. In words: NCI In Vivo Anticancer Drug Screen. Data for tumor model L1210 Leukemia (intraperitoneal) in B6D2F1 (BDF1) mice. The following applies: endpoint: mean survival time, higher = longer survival. Summed up: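 Read-out is survival time, reported as the treated-group measurement over the vehicle-control measurement.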

[1] abbreviates: dose: 100.0 mg/kg/injection, schedule: Q01DX009 (ip), vehicle: saline with Tween-80.
Setting [2] is: dose: 200.0 mg/kg/injection, schedule: Q01DX009 (ip), vehicle: saline with Tween-80.
[3] abbreviates: dose: 100.0 mg/kg/injection, schedule: Q01DX001 (ip), vehicle: saline.
[4] abbreviates: dose: 200.0 mg/kg/injection, schedule: Q01DX001 (ip), vehicle: saline.
[5] abbreviates: dose: 400.0 mg/kg/injection, schedule: Q01DX001 (ip), vehicle: saline.
Setting [6] is: dose: 50.0 mg/kg/injection, schedule: Q01DX009 (ip), vehicle: saline.
The mark [7] stands for this setting: dose: 100.0 mg/kg/injection, schedule: Q01DX009 (ip), vehicle: saline.
[8] abbreviates: dose: 100.0 mg/kg/injection, schedule: Q04DX003 (ip), vehicle: saline.
Where [9] appears, read: dose: 200.0 mg/kg/injection, schedule: Q04DX003 (ip), vehicle: saline.
The mark [10] stands for this setting: dose: 400.0 mg/kg/injection, schedule: Q04DX003 (ip), vehicle: saline.
[11] abbreviates: dose: 100.0 mg/kg/injection, schedule: Q04DX003 (ip), vehicle: saline with Tween-80.
Where [12] appears, read: dose: 200.0 mg/kg/injection, schedule: Q04DX003 (ip), vehicle: saline with Tween-80.
Where [13] appears, read: dose: 400.0 mg/kg/injection, schedule: Q04DX003 (ip), vehicle: saline with Tween-80.
[14] abbreviates: dose: 200.0 mg/kg/injection, schedule: Q01DX009 (ip), vehicle: saline.
Setting [15] is: dose: 50.0 mg/kg/injection, schedule: Q01DX001 (ip), vehicle: saline.

In the case of `CN(C)c1ccc(/C=C2/CCCC/C2=N/O)cc1`, the T/C under setting [1] was 98 % of control; the T/C under setting [2] was 92 % of control; the T/C (dose: 400.0 mg/kg/injection, schedule: Q01DX009 (ip), vehicle: saline with Tween-80) is 88 % of control.
With `CCN(CC)CCCC(C)Nc1nccc(/C=C/c2ccc(Cl)cc2)n1` (configuration not stated), the T/C was 96 % of control under setting [3]; 90 % of control (dose: 100.0 mg/kg/injection, schedule: Q04DX003 (ip), vehicle: Klucel (hydroxypropylcellulose) (HPC)); 105 % of control under setting [4]; 100 % of control under setting [5]; 94 % of control (dose: 400.0 mg/kg/injection, schedule: Q04DX003 (ip), vehicle: Klucel (hydroxypropylcellulose) (HPC)).
For the compound `O=[N+]([O-])c1ccc(OCc2cc(S(=O)(=O)F)ccc2Cl)c(Cl)c1`, the T/C is 100 % of control (dose: 75.0 mg/kg/injection, schedule: Q04DX003 (ip), vehicle: gum acacia); 96 % of control (dose: 150.0 mg/kg/injection, schedule: Q04DX003 (ip), vehicle: gum acacia); 91 % of control (dose: 300.0 mg/kg/injection, schedule: Q04DX003 (ip), vehicle: gum acacia).
Take `O=C(Nc1ccc(S(=O)(=O)NC2CCCCC2)cc1)OC1CCCC1`: the T/C is, setting by setting: (dose: 100.0 mg/kg/injection, schedule: Q01DX001 (ip), vehicle: carboxymethylcellulose (CMC)) 95 % of control; (dose: 200.0 mg/kg/injection, schedule: Q01DX001 (ip), vehicle: carboxymethylcellulose (CMC)) 94 % of control; (dose: 400.0 mg/kg/injection, schedule: Q01DX001 (ip), vehicle: carboxymethylcellulose (CMC)) 97 % of control.
As for `CC(C)OC(=S)S`, the T/C by setting is: (dose: 25.0 mg/kg/injection, schedule: Q01DX009 (ip), vehicle: saline) 100 % of control; under setting [6], 94 % of control; under setting [7], 93 % of control.
Consider `OCCC#CCCOC1CCCCO1` (configuration not stated), for which the T/C was 93 % of control (dose: 100.0 mg/kg/injection, schedule: Q04DX002 (ip), vehicle: saline with Tween-80); 103 % of control (dose: 200.0 mg/kg/injection, schedule: Q04DX002 (ip), vehicle: saline with Tween-80); 103 % of control (dose: 400.0 mg/kg/injection, schedule: Q04DX002 (ip), vehicle: saline with Tween-80).
In the case of `CCn1c2ccccc2c2c(C)c3cnccc3c(C)c21`, the T/C (dose: 37.5 mg/kg/injection, schedule: Q04DX003 (ip), vehicle: saline) is 94 % of control; the T/C (dose: 62.5 mg/kg/injection, schedule: Q01DX009 (ip), vehicle: saline with Tween-80) was 193 % of control; the T/C (dose: 75.0 mg/kg/injection, schedule: Q04DX003 (ip), vehicle: saline) was 90 % of control; the T/C (dose: 125.0 mg/kg/injection, schedule: Q01DX009 (ip), vehicle: saline with Tween-80) is 101 % of control; the T/C (dose: 150.0 mg/kg/injection, schedule: Q04DX003 (ip), vehicle: saline) is 92 % of control; the T/C (dose: 250.0 mg/kg/injection, schedule: Q01DX009 (ip), vehicle: saline with Tween-80) was 105 % of control. Moreover, under “dose: 300.0 mg/kg/injection, schedule: Q04DX003 (ip), vehicle: saline”, the T/C is 94 % of control.
Regarding `O=N[O-].O=N[O-].O=N[O-].[Co+3].[NH2-].[NH2-].[NH2-]`, the T/C is 92 % of control under setting [3]; 119 % of control under setting [8]; 90 % of control under setting [4]; 105 % of control under setting [9]; 97 % of control under setting [5]; 97 % of control under setting [10].
Regarding `CSCCC(NC(=O)CNC(=O)OCc1ccccc1)C(=O)O` (configuration not stated), the T/C was 106 % of control under setting [11], 95 % of control under setting [12] and 107 % of control under setting [13].
In the case of `CC12C(=O)N(C3CCC(=O)NC3=O)C(=O)C1C1CCC2C1` (configuration not stated), the T/C under setting [11] is 96 % of control.
Turning to `CCC[N+](=CC1CCCCC1)CCC`, the T/C is, setting by setting: under setting [8], 104 % of control; under setting [9], 95 % of control; under setting [10], 91 % of control.
As to `O=C(N/N=C/c1cccc([N+](=O)[O-])c1)c1ccc(Cl)cc1`, the T/C (dose: 50.0 mg/kg/injection, schedule: Q01DX009 (ip), vehicle: saline with Tween-80) was 96 % of control; the T/C under setting [1] is 89 % of control; the T/C under setting [2] is 89 % of control.
In the case of `CC(=O)N[Si](C)(C)C`, the T/C runs as follows: under setting [3], 102 % of control; under setting [4], 100 % of control; under setting [5], 98 % of control.
For `CN(C)C(=N)C(=N)N(C)C`, the T/C reads like this: under setting [7], 96 % of control; under setting [8], 98 % of control; under setting [14], 88 % of control; under setting [9], 100 % of control; (dose: 400.0 mg/kg/injection, schedule: Q01DX009 (ip), vehicle: saline) 94 % of control; under setting [10], 93 % of control.
Regarding `CN(C)C(=O)Sc1ccc(C(C)(C)C)cc1`, the T/C was 95 % of control (dose: 100.0 mg/kg/injection, schedule: Q01DX001 (ip), vehicle: Klucel (hydroxypropylcellulose) (HPC)); 90 % of control (dose: 200.0 mg/kg/injection, schedule: Q01DX001 (ip), vehicle: Klucel (hydroxypropylcellulose) (HPC)); 112 % of control (dose: 400.0 mg/kg/injection, schedule: Q01DX001 (ip), vehicle: Klucel (hydroxypropylcellulose) (HPC)).
With `Cc1ccc(Nc2cc(=O)[nH]c(=O)[nH]2)c(C)c1`, the T/C was 97 % of control (dose: 18.75 mg/kg/injection, schedule: Q01DX001 (ip), vehicle: saline with Tween-80); 90 % of control (dose: 37.5 mg/kg/injection, schedule: Q01DX001 (ip), vehicle: saline with Tween-80); 90 % of control (dose: 75.0 mg/kg/injection, schedule: Q01DX001 (ip), vehicle: saline with Tween-80).
Regarding `NC(N)=NC(N)=Nc1ccccc1`, the T/C runs as follows: (dose: 100.0 mg/kg/injection, schedule: Q04DX002 (ip), vehicle: Klucel (hydroxypropylcellulose) (HPC)) 101 % of control; (dose: 200.0 mg/kg/injection, schedule: Q04DX002 (ip), vehicle: Klucel (hydroxypropylcellulose) (HPC)) 105 % of control; (dose: 400.0 mg/kg/injection, schedule: Q04DX002 (ip), vehicle: Klucel (hydroxypropylcellulose) (HPC)) 97 % of control.
With `CC(C)(C)CC(C)(C)NCC#N`, the T/C by setting is: (dose: 6.25 mg/kg/injection, schedule: Q04DX003 (ip), vehicle: Klucel (hydroxypropylcellulose) (HPC)) 92 % of control; (dose: 12.5 mg/kg/injection, schedule: Q04DX003 (ip), vehicle: Klucel (hydroxypropylcellulose) (HPC)) 95 % of control; (dose: 25.0 mg/kg/injection, schedule: Q04DX003 (ip), vehicle: Klucel (hydroxypropylcellulose) (HPC)) 92 % of control and 96 % of control.
For the compound `CC1(NCc2ccc(Cl)cc2)COP(=O)(NCc2ccccc2)OC1` (configuration not stated), the T/C by setting is: under setting [15], 101 % of control; under setting [3], 106 % of control; under setting [4], 95 % of control; under setting [5], 98 % of control.
Consider `CCC(C)[n+]1cc([O-])on1` (configuration not stated), for which the T/C is, setting by setting: (dose: 12.5 mg/kg/injection, schedule: Q01DX009 (ip), vehicle: Klucel (hydroxypropylcellulose) (HPC)) 98 % of control; (dose: 25.0 mg/kg/injection, schedule: Q01DX009 (ip), vehicle: Klucel (hydroxypropylcellulose) (HPC)) 98 % of control; (dose: 50.0 mg/kg/injection, schedule: Q01DX009 (ip), vehicle: Klucel (hydroxypropylcellulose) (HPC)) 95 % of control.
Consider `NNc1ccc2c(O)cc(S(=O)(=O)O)cc2c1`, for which the T/C reads like this: under setting [3], 98 % of control; under setting [8], 103 % of control; under setting [4], 104 % of control; under setting [9], 95 % of control; under setting [5], 107 % of control; under setting [10], 101 % of control.
In the case of `Cn1ncc(=O)n(C)c1=O`, the T/C runs as follows: under setting [6], 97 % of control; under setting [7], 97 % of control; under setting [14], 93 % of control.
In the case of `CC(C)(C)C1CCC(C(=O)c2ccccc2)CC1` (configuration not stated), the T/C was 100 % of control under setting [11], 94 % of control under setting [12] and 89 % of control under setting [13].
Turning to `CCOc1cccnc1/C=N/NC(N)=S`, the T/C by setting is: under setting [15], 106 % of control; under setting [3], 102 % of control; under setting [4], 100 % of control; under setting [5], 108 % of control.
